Results as given in US11617741B1, “Method for inhibiting growth of bacteria” (priority 2021, dated 2023).
In brackets after ≈: the same amount, converted by molar mass. Marks after values point to notes of the source that are not given here.

Legend:
[1] = test system: PKZRSA1 (PKZ18-22-resistant MRSA); experiment: MICs against PKZ18-22-resistant mutant compared to WT MRSA; format: cell-based, Staphylococcus aureus
Protocol: (§1) The 96-well plate was organized as follows. Media (100 μl) were added to all wells.

[2] = test system: T-box controlled genes in MRSA; experiment: RNA sequencing of MRSA grown in minimal media; format: cell-based, Staphylococcus aureus
S. aureus N315 = experiment: Checkerboard assay and FIC; format: cell-based, Staphylococcus aureus
Protocol: S. aureus N315 cultures were prepared identically to MIC determination in BHI media. The co-MICs were determined using the checkerboard method. In short, antibiotics to be tested with PKZ18 analogs were diluted 2-fold top to bottom (A to G rows) in a 96-well plate, PKZ18 analogs were diluted 2-fold right to left (columns 11-2 of the 96-well plate), and column 12 was used for vector, media, and growth controls. Each drug was therefore tested by itself and with every dilution of the other drug.
The synergistic and additive interactions were determined based on determined cutoffs using the equation
[formula] where MICAB is the lowest possible concentration of both drugs combined where there is no growth, and MICA and MICB are the MIC values of the individual drugs. For a synergistic drug interaction, the fractional inhibitory concentration (FIC) should be below 0.5, additive or indifferent effects are considered in an FIC range of 0.5 to <4, and an FIC value above 4 is considered antagonistic.

glyQS T-box = experiment: qRT-PCR transcriptional read-through of T-box-regulated glyQS (confirmation of inhibition of T-box mechanism); format: cell-based, Bacillus subtilis 1A5; settings: for T-Box targeting: confirmation of inhibition of T-box mechanism from qRT-PCR assay
Description: Sample preparation of RNA and cDNA.

[3] = test system: S. aureus N315 (MRSA isolate); experiment: Minimum inhibitory and bactericidal concentration determination; format: cell-based, Staphylococcus aureus; settings: for MIC against S. aureus in minimal media: S. aureus N315, minimal media; for MIC against S. aureus in rich media: S. aureus N315, rich media
Protocol: as §1

[4] = test system: planktonic growth of Staphylococcus
Protocol: An overnight culture of S. aureus (ATCC 29213) was diluted to 1×10^7 cells/mL in tryptic soy broth (TSB) supplemented with 10% human plasma (Innovative Research, Novi, Mich. USA) and added to the wells of an MBEC™-HTP Assay Biofilm Innoculator (Innovotech, Edmonton, AB, Canada). The plate was incubated overnight at 37° C. and shaken at 125 rpm. […] Control wells were without a COMPOUND OF Formula I. The treatment plate was incubated for 24 h at 37° C. after which the lid was removed, rinsed with PBS, and placed in a new 96-well plate containing TSB. The biofilm was removed from the assay lid into the recovery plate wells by sonication, a new plate cover was added, and the viability of the biofilm was determined after 24 h of incubation at 37° C. by reading the OD at 625 nm. Three independent experiments were conducted. Concentrations of interest were followed up with colony forming unit (CFU) recovery and scanning electron microscopy analysis. After conclusion of the MBEC assay, the minimum bactericidal concentration (MBC) was determined. The MBC is the lowest concentration of an antibacterial agent required to kill a particular bacterium. The peg lid from the MBEC assay was removed from the challenge plate and 20 μL of medium from each well of the challenge plate was removed and added to a new sterile 96-well plate filled with 180 μL TSB. […]

S. aureus biofilm = experiment: MBEC-HTP biofilm model, combinations, Bliss independence model and CFU recovery; format: cell-based, Staphylococcus aureus
Protocol: This inherent resistance of bacteria in biofilms and the emergence of antibiotic-resistant bacteria has necessitated the drive to explore competent novel antimicrobial agents such as PKZ18 and the development of combinations of these novel antimicrobial agents with established antibiotics. We determined the minimum biofilm eradication concentration (MBEC) of compounds of Formula I in combination with vancomycin, gentamicin, rifampin, and tetracycline. Three independent experiments were conducted and required a checkerboard dilution to test various concentrations of the following combinations (compound of Formula I+each antibiotic) against S. aureus utilizing an established MBEC™-HTP biofilm model (Innovotech).
Briefly, an overnight culture of S. aureus was diluted to 1×10^5 cells/mL in cation-adjusted Mueller Hinton broth (MHB) supplemented with 1% human plasma and added to the wells of an MBEC plate. […] After incubation, the lid was removed and rinsed in PBS. Following treatment, a tetrazolium (2,3,5-triphenyl tetrazolium chloride, TTC) assay was performed to assess metabolic activity and viability. The lid was rinsed in PBS, transferred to a 96-well plate containing a 0.01% TTC solution in MHB, and incubated at 37° C. overnight. To dissolve the stain from the pegs, the lid was placed in a 96-well plate containing 96% ethanol and the OD of the wells was then read at 490 nm. Data was analyzed with the Bliss independence model using the Combenefit software.
After rinsing in PBS, designated pegs were snapped off the lid using sterile tweezers and placed in 1.5 mL Eppendorf tubes containing 200 μL PBS. Biofilm was disrupted from the pegs by sonicating the tubes for 15 min (Branson M8800H, Branson Ultrasonics, West Chester, Pa., USA), followed by vortexing for 10 s. Three independent serial dilutions were prepared for each sample and plated on tryptic soy agar (TSA) plates that were incubated overnight at 37° C. The plates were then imaged and colonies counted on a ColonyDoc-It™ Imaging station (UVP, Analytik Jena, Beverly, Mass., USA).

B. subtilis 168 [5] = experiment: Minimum inhibitory concentration determination; format: cell-based, Bacillus subtilis
Protocol: as §1

E. coli = experiment: Minimum inhibitory and bactericidal concentration determination, Gram-negative control; format: cell-based, Escherichia coli
Protocol: as §1

[6] = test system: ileS and tyrS T-boxes in WT MRSA
Protocol: Sample preparation of RNA and cDNA. RNA extraction and cDNA preparation were conducted as previously reported. In short, guanidine thiocyanate (0.5 M final concentration)-treated and pelleted bacterial cultures were resuspended in TRIzol, lysed by beat beating with zirconia beads, and centrifuged.
The solution was transferred to fresh tubes, and the RNA was extracted with chloroform. The RNA was then pelleted with 100% isopropanol and washed with ice-cold 70% ethanol, resuspended in Millipore water, DNase treated, and extracted with another isopropanol precipitation and ethanol wash. The resulting RNA was quantified using a NanoDrop 3300 (Thermo Fisher), and the quality was assessed by running 1 μg on a denaturing agarose gel. DNA contamination was tested for by PCR followed by agarose gel electrophoresis. cDNA was generated from 1 μg of high-quality RNA using the SuperScript III reverse transcriptase protocol for random primers (Thermo Fisher).
Either 2-fold or 10-fold dilutions of cDNA were used, and amplification was monitored with Evagreen dye. The expression was normalized to either 23S (B. subtilis 1A5) or 16S (MRSA) and reported as percentage read-through of the T-boxes tested for, calculated using the threshold cycle (2^−ΔΔCT) method.

S. aureus N315 (MRSA) = experiment: Antibiotic resistance frequency (fluctuation assay); format: cell-based, Staphylococcus aureus; settings: MRSA plated on 64 μg/ml PKZ18-22 or 10 μg/ml gentamicin
Description: Gentamicin on BHI agar was used as a control.

B. subtilis 168 [7] = test system: B. subtilis 168
Protocol: Gentamicin on BHI agar was used as a control. In short, MRSA and B. subtilis were grown overnight in BHI, and 3-hour day cultures at the optical density of A620 of 0.1 were started for both organisms. The optical density after 3 hours of growth was measured; cultures were then pelleted and resuspended to give 10^11 CFU/ml by optical density. CFU of 10^11 per OD were plated in total; 100 μl of the cells were then plated on BHI agar containing either 128 μg/m1PKZ18 or 64 μg/m1PKZ18-22. Serial dilutions of the cells were plated on plain BHI agar in order to calculate the CFU/ml, which was calculated as the number of colonies found on the plates divided by the total number of bacteria plated. CFU means colony forming units, a measure of live bacteria.

CCCCCCCCCC(=O)N[C@@H](Cc1c[nH]c2ccccc12)C(=O)N[C@H](CC(N)=O)C(=O)N[C@@H](CC(=O)O)C(=O)N[C@@H]1C(=O)NCC(=O)N[C@@H](CCCN)C(=O)N[C@@H](CC(=O)O)C(=O)N[C@H](C)C(=O)N[C@@H](CC(=O)O)C(=O)NCC(=O)N[C@H](CO)C(=O)N[C@@H]([C@H](C)CC(=O)O)C(=O)N[C@@H](CC(=O)c2ccccc2N)C(=O)O[C@@H]1C [daptomycin, reference compound]
change in the MIC between WT and PKZRSA1 [1]: no change | expression and read-through of T-box-controlled genes ([2]; 4 μg/ml, control antibiotic): lower than untreated for many of the genes | initiation of T-box-controlled genes ([2]; 4 μg/ml, control antibiotic): did not significantly affect

CC(C)Cc1ccc(-c2csc(NC(=O)C3C4CCC(C4)C3C(=O)O)n2)cc1 (stereo not shown) [PKZ18-22]
cysteine and histidine T-boxes (cysE-cysS and hisS-aspS operons) ([2]; 4 and 8 μg/ml): inhibited only by the higher concentration | read-through of alaS ([2]; 4 and 8 μg/ml): not inhibited | read-through reduction of tyrS ([2]; 4 and 8 μg/ml): not statistically significant | overall change in gene expression ([2]; 4 and 8 μg/ml vs untreated): large overall change in expression | genes under T-box control (out of the 12) with reduced expression ([2]; 4 or 8 μg/ml PKZ18-22): 8 | read-throughs of glyS, ileS, leuS, pheST, serS, thrS and valS ([2]; both concentrations (4 and 8 μg/ml), normalized to untreated): reduction | relative read-through of other riboswitch-controlled genes ([2]; non-T-box 5′UTR regulated genes): did not significantly change | FIC of PKZ18-22 and gentamicin (S. aureus N315; both rich and minimal media, WT MRSA): 0.38 | fold decrease in the MIC of PKZ18-22 (S. aureus N315; in combination with gentamicin): 4 fold | fractional inhibitory concentration FIC (S. aureus N315; with ampicillin): 0.75 | fractional inhibitory concentration FIC (S. aureus N315; with chloramphenicol): 0.75 | fractional inhibitory concentration FIC (S. aureus N315; with gentamicin): 0.38 | fractional inhibitory concentration FIC (S. aureus N315; with kanamycin A): 0.38 | fractional inhibitory concentration FIC (S. aureus N315; with neomycin B): 0.38 | fractional inhibitory concentration FIC (S. aureus N315; with streptomycin): 0.75 | inhibition of read-through compared with PKZ18 (glyQS T-box; 4 μg/ml of each drug, side by side in same biological replicate): significantly better than PKZ18 | T-box-controlled expression of glyQS (termination of read-through) (glyQS T-box; B. subtilis 1A5, increasing concentrations, minimal media): inhibited | T-Box targeting (glyQS T-box; Table 1): Yes | T-Box targeting (glyQS T-box; Table 2): Yes | bactericidal effect ([3]; MRSA): bactericidal | fold reduction in MIC in minimal compared to rich media ([3]; MRSA strain S. aureus N315): 4 fold | MIC against S. aureus in minimal media [3]: 8^b μg/ml | MIC against S. aureus in rich media [3]: 32^b μg/ml | MIC S. aureus N315 ([3]; Table 2): 32 µg/mL (≈ 80.3 µM) | MBC S. aureus N315 ([3]; Table 2, value in parentheses): 64 µg/mL (≈ 161 µM) | planktonic growth over a range of concentrations [4]: killing curve | highest synergy score (Bliss) (S. aureus biofilm; PKZ18-22 25 μg/mL and gentamicin 16 μg/mL and 64 μg/mL): 87 | log reduction in CFU/mL in biofilm growth (S. aureus biofilm; PKZ18-22 25 μg/mL and gentamicin 64 μg/mL, 24 h exposure): ~5 log | biofilm CFU reduction with rifampin combination (S. aureus biofilm; PKZ18-22 25 μg/mL and rifampin 0.001 or 0.005 μg/mL, single dose 24 h): significantly greater reduction when compared to each treatment alone | maximal synergy score (Bliss) (S. aureus biofilm; PKZ18-22 25 μg/mL and vancomycin 4 μg/mL): 43 | cell reduction (S. aureus biofilm; combination of gentamicin/PKZ18-22, single dose 24 h challenge): > 99.9% | synergy with minocycline (S. aureus biofilm; single dose 24 h challenge): not synergistic | bactericidal effect (B. subtilis 168 [5]; B. subtilis 168): bactericidal | MIC against B. subtilis 168 in minimal media (B. subtilis 168 [5]): 4 µg/mL (≈ 10 µM) | MIC against B. subtilis 168 in rich media (B. subtilis 168 [5]): 16 µg/mL (≈ 40.1 µM) | MIC E. coli (E. coli): > 256 µg/mL | MBC E. coli (E. coli; value in parentheses): > 256 µg/mL | relative read-through of ileS and tyrS ([6]; MRSA in minimal media, 4 μg/ml): decrease | read-through of ileS and tyrS ([6]; MRSA in rich media, 8 μg/ml): reduced | resistance frequency (S. aureus N315 (MRSA)): 5.6×10^−12 | resistant colonies (B. subtilis 168 [7]): did not generate resistant colonies

Gentamicin [reference compound]
fold increase in MIC against PKZRSA1 compared to WT [1]: 2 fold | fold decrease in the MIC of gentamicin (S. aureus N315; in combination with PKZ18-22): 8 fold | change of MIC in minimal media compared to rich media ([3]; S. aureus N315): increased MICs | MIC against S. aureus in minimal media [3]: 2.0^b μg/ml | MIC against S. aureus in rich media [3]: 0.5^b μg/ml | MIC against B. subtilis 168 in minimal media (B. subtilis 168 [5]): 0.25 µg/mL | MIC against B. subtilis 168 in rich media (B. subtilis 168 [5]): 0.125 µg/mL | resistance frequency (S. aureus N315 (MRSA)): 1.6×10^−7
